{"source": "paper PMC11366520", "about": "“Purification of angiotensin converting enzyme inhibitory peptides and antihypertensive effect generated from Indonesian traditional fermented beef (Cangkuk)” (Animal Bioscience, 2024)", "key": {"[1]": {"conditions": "pepsin hydrolyzed peptides from porcine skeletal myosin B; ref [9]; cited from earlier work", "excerpt": "Meat and meat products are excellent sources of ACE-inhibitory peptides. ACE-inhibitory peptides from animal proteins can be produced by several methods, including enzymatic hydrolysis and fermentation. […] The pepsin hydrolyzed peptide Lys-Arg-Val-Ile-Gln-Try and the Val-Lys-Ala-Gly-Ph sequence from por ..."}, "[2]": {"molecular_target": "T1, Angiotensin converting enzyme (from rabbit lung) (Oryctolagus cuniculus, UniProt P12822)", "T1 construct": "Angiotensin converting enzyme (from rabbit lung); purchased Sigma-Aldrich Co. (St. Louis, MO, USA); host or cells: rabbit lung (tissue-derived)", "T1 sequence (P12822 34-1310)": "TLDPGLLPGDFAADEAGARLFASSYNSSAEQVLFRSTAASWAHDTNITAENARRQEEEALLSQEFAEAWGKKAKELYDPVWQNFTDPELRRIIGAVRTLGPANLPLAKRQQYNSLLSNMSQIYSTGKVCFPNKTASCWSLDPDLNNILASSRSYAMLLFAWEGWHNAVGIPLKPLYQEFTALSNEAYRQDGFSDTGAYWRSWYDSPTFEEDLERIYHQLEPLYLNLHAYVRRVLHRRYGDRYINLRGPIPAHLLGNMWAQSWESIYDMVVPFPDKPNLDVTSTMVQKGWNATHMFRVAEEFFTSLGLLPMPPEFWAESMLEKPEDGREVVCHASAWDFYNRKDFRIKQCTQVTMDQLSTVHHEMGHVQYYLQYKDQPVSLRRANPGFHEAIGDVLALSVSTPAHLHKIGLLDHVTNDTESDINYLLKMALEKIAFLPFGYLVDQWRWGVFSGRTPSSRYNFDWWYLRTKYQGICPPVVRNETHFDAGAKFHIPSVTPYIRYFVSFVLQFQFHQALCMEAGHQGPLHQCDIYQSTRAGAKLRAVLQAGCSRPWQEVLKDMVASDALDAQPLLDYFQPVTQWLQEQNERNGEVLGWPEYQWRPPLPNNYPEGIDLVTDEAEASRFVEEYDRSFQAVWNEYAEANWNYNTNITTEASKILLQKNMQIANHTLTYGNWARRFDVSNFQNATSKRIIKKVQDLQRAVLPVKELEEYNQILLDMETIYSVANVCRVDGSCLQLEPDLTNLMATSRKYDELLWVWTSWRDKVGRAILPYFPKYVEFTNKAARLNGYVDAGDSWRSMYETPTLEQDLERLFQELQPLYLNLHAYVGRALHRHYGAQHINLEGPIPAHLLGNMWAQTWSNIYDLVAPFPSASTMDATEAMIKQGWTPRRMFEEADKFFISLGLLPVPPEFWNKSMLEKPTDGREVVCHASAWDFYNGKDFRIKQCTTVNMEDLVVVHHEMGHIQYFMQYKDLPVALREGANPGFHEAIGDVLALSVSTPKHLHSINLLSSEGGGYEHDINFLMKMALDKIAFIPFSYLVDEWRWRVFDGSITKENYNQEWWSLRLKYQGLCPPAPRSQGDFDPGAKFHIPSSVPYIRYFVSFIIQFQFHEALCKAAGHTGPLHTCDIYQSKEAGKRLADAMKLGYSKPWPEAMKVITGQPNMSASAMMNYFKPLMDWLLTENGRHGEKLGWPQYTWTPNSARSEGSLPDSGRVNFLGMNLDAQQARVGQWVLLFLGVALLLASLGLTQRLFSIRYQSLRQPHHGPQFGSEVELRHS", "experiment": "ACE-inhibitory activity, hippuric acid liberated from Hip-His-Leu (Cushman and Cheung, modified)", "type": "biochemical", "conditions": "synthetic peptides, purity 80%, sodium borate buffer pH 8.3, Hip-His-Leu 7.6 mM, NaCl 608 mM, pre-incubation 5 min, incubation 30 min, 37°C, 228 nm", "excerpt": "The raw materials used in processing Cangkuk were fresh beef meat (brisket) from male Bali cattle, aged 2.5 to 3 years, purchased from the Animal Slaughtering House in Pekanbaru City. Green bamboo shoots were harvested from local farms. The additional ingredients were cooked rice, salt and distilled water. Angiotensin converting enzyme (from rabbit lung) and the substrate, hippuryl-L-histidyl-leucine, were purchased from Sigma-Aldrich Co. (St. Louis, MO, USA). All the chemicals and reagents used were of analytical grade.\nACE-inhibitory activity was analyzed according to the method of Cushman and Cheung with modifications by Arihara et al. This assay is based on liberation of hippuric acid from Hip-His-Leu catalyzed by ACE. A sample solution (15 μL) was mixed with 125 μL of a 100 mM sodium borate buffer (pH 8.3) containing 7.6 mM Hyp-Hys-Leu and 608 mM NaCl followed by pre-incubation for 5 min at 37°C. The reaction was initiated by adding 50 μL of ACE dissolved in distilled water, and the mixture was incubated for 30 min at 37°C. The reaction was stopped by adding 125 μL of 1 N HCl. […] Hippuric acid was dissolved with 1 mL of distilled water and its concentration spectrophotometrically determined at 228 nm. ACE inhibitory activity was calculated as: […]\nwhere A, absorbance of the sample reaction; B, absorbance of the blank; and C, absorbance of the control (distilled water)."}, "SHRs": {"tested_on": "SHRs", "conditions": "cited from earlier work", "excerpt": "Meat and meat products are excellent sources of ACE-inhibitory peptides. ACE-inhibitory peptides from animal proteins can be produced by several methods, including enzymatic hydrolysis and fermentation. […] The higher the dose, the greater the decrease in SBPs. […] There is strong association between ACE inhibition and the antihypertensive effects of a bioactive peptide owing to its structure, size, chain length, type and order of amino acids ... || (+ 1 further places)"}, "ACE": {"tested_on": "ACE", "conditions": "cited from earlier work; for pIC50: read-out: IC50 value (ACE inhibition)", "procedure": "According to a previous study, “Cangkuk” is made from fresh beef to which bamboo shoots, rice and salt are added. The treatment evaluated in the current research was addition of bamboo shoots with different preparation methods (chopped, ground, and extracted) and varied meat:bamboo shoot ratios (1:0.75, 1:1, and 1:1.25). Then, these preparations were fermented under anaerobic conditions at room temperature for seven days. It was reported that all treatments had ACE-inhibitory activities ranging from 43% to 80%. […] EAPLNPKANR, is a fragment of the 3rd to 12th amino acid sequence of LTEAPLNPKANREK [25]. […] The presence of hydrophobic amino acids such as isoleucine, valine, and glycine in the sequence has been associated with ACE-inhibitory activity."}}, "note": "pIC50: −log10 of the molar value. Where two headings read alike, the source gives them in different places. Residues, ends and D or L forms follow the SMILES beside them. No end group written: not given here."}
{"compound": "Lys-Arg-Val-Ile-Gln-Try [pepsin hydrolyzed peptide from porcine skeletal myosin B]", "values": [{"measurement": "antihypertensive effects in vivo (in words)", "setting": "[1]", "value": "showed antihypertensive effects in vivo"}]}
{"compound": "CC[C@H](C)[C@H](N)C(=O)N[C@H](C(=O)NCC(=O)O)C(C)C", "note": "[IVG] (H-Ile-Val-Gly-OH)", "values": [{"measurement": "pIC50", "setting": "[2]", "value": 4.01}]}
{"compound": "WGAP", "values": [{"measurement": "reduction of SBP", "setting": "SHRs; 100 mg/kg BW oral, SHRs, 4 h after administration, ref [33]", "value": "up to 42.6 mmHg"}]}
{"compound": "LIVGIIRCV [nonapeptide from beef myofibrillar protein hydrolysate]", "values": [{"measurement": "antihypertensive effect in SHRs (in words)", "setting": "SHRs; alkaline-AK-pepsin hydrolyzed peptide from beef myofibrillar protein, ref [8]", "value": "had an antihypertensive effect in SHRs"}]}
{"compound": "Val-Lys-Ala-Gly-Ph", "values": [{"measurement": "antihypertensive effects in vivo (in words)", "setting": "[1]", "value": "showed antihypertensive effects in vivo"}]}
{"compound": "LTEAPLNPKANREK", "values": [{"measurement": "pIC50", "setting": "ACE; peptide from goat meat hydrolysate (pepsin, trypsin, chymotrypsin), ref [25]", "value": 3.92}]}
{"compound": "IVGRPRHQG", "values": [{"measurement": "pIC50", "setting": "ACE; nonapeptide from Katsuobusi, ref [26]", "value": 5.21}]}
{"compound": "IVDR [tetrapeptide from Paralichthys olivaceus surimi]", "values": [{"measurement": "decrease of blood pressure in SHRs (in words)", "setting": "SHRs; 6 h after administration, ref [31]", "value": "could decrease blood pressure in SHRs 6 h after its administration"}, {"measurement": "ACE inhibitory activity (in words)", "setting": "ACE; tetrapeptide from Paralichthys olivaceus surimi, ref [31]", "value": "high ACE inhibitory activity"}]}
{"compound": "IKEVTER", "values": [{"measurement": "ACE-inhibitory activity (in words)", "setting": "ACE; peptide from venison treated with pepsin-trypsin-pancreatin, ref [28]", "value": "strong ACE-inhibitory activity"}]}
{"compound": "EAPLNPKANR [EAPLNPKANR]", "values": [{"measurement": "pIC50", "setting": "[2]", "value": 4.35}]}
